From ChEMBL document CHEMBL1240315, “Allosteric inhibition of kinesin-5 modulates its processive directional motility” (Nat Chem Biol, 2006)
Calls of active or inactive are those of the source. The rule behind the calls is not given here.

How the values were obtained:
[1] = biological target: T1, Kinesin-like protein KIF11 (Homo sapiens) (UniProt P52732); experiment: Binding affinity to recombinant Eg5-GFP in cell-free system assessed as Eg5-GFP movement along microtubules without directionality at 2 mM by kymograph analysis
T1 sequence (whole entry): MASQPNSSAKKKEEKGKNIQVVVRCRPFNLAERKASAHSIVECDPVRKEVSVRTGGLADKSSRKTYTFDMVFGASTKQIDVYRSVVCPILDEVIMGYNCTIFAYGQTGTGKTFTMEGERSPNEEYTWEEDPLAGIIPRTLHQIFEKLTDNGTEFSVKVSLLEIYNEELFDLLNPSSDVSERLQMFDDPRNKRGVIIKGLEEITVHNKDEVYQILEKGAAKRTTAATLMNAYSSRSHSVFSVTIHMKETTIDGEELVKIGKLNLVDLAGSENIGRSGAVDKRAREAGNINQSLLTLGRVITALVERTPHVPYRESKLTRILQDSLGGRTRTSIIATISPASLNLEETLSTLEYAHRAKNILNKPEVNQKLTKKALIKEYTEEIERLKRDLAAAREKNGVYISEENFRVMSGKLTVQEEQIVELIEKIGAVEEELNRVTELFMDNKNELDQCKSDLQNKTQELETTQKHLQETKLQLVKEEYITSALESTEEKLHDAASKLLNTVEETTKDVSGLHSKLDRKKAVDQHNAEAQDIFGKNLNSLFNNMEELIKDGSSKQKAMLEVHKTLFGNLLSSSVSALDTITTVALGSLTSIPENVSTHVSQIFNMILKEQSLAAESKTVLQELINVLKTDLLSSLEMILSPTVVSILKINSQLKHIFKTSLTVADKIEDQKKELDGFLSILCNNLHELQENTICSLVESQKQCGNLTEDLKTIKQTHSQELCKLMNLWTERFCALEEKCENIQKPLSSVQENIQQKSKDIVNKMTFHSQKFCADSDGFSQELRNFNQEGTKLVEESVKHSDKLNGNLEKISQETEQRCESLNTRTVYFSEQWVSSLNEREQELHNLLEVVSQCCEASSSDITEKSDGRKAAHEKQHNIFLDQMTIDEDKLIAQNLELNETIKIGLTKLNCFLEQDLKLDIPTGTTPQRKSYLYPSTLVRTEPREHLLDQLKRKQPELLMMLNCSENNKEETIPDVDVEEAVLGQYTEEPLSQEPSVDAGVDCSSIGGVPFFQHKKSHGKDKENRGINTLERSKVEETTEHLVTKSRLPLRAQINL

[2] = biological target: T1, Kinesin-like protein KIF11 (Homo sapiens); experiment: Binding affinity to recombinant Eg5-GFP in cell-free system assessed as Eg5-GFP movement along microtubules without directionality at 2 mM by mean square displacement analysis
[3] = biological target: T1, Kinesin-like protein KIF11 (Homo sapiens); conditions: 25 uM
Description: Inhibition of recombinant Eg5-GFP in cell-free system assessed as Eg5 motility speed on microtubule at 25 uM by mean square displacement analysis in presence of 2 mM ATP

[4] = biological target: T1, Kinesin-like protein KIF11 (Homo sapiens); conditions: 100 uM
Description: Inhibition of recombinant Eg5-GFP in cell-free system assessed as Eg5 motility speed on microtubule at 100 uM by mean square displacement analysis in presence of 2 mM ATP

[5] = biological target: T1, Kinesin-like protein KIF11 (Homo sapiens); conditions: 100 uM; remark: listed apart in the source
Description: Inhibition of recombinant Eg5-GFP in cell-free system assessed as reduction of Eg5 motility speed on microtubule at 100 uM by kymograph analysis

[6] = biological target: T1, Kinesin-like protein KIF11 (Homo sapiens); conditions: 100 uM; remark: listed apart in the source
Description: Inhibition of recombinant Eg5-GFP in cell-free system assessed as reduction in mean duration of Eg5-GFP-microtubule interaction at 100 uM by kymograph analysis

[7] = biological target: T1, Kinesin-like protein KIF11 (Homo sapiens); conditions: 100 uM; remark: listed apart in the source
Description: Inhibition of recombinant Eg5-GFP in cell-free system assessed as Eg5-GFP movement along microtubules without directionality at 100 uM by mean square displacement analysis in presence of 2 mM ADP

| Activity (nanometer2/sec) [1] | Activity (nanometer2/sec) [2] | Activity (nanometer2/sec) [3] | Activity (nanometer2/sec) [4] | inhibition [5] | inhibition [6] | Activity (nanometer2/sec) [7] | SMILES |
| --- | --- | --- | --- | --- | --- | --- | --- |
| 4 | 771 |  |  |  |  |  | Nc1ncnc2c1ncn2[C@@H]1O[C@H](COP(=O)(O)OP(=O)(O)O)[C@@H](O)[C@H]1O |
|  |  | 1460 | 2140 | inactive | inactive | 3820 | CCOC(=O)C1=C(C)NC(=S)NC1c1cccc(O)c1 (configuration not stated) |
